Assay results published in US10385103B2, “Cell-permeable (ICP)-SOCS3 recombinant protein and uses thereof” (CELLIVERY THERAPEUTICS, INC., priority 2014, dated 2019).

Tested on: RAW 264.7 cells
Assay: Quantitative cell-permeability of FITC-labeled aMTD- or rPeptide-fused CRA recombinant proteins (flow cytometry)
Format: cell-based
In short: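 RAW 264.7 cells were exposed to 10 μM FITC-labeled recombinant proteins, consisting of a non-functional cargo fused to aMTD or rPeptide sequences, for 1 hour at 37° C. Cells were washed three times in cold PBS and treated with 0.25% tripsin/EDTA for 20 minutes at 37° C. to strip surface-bound protein, then uptake was measured by flow cytometry.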

[1] = cell-permeability relative to negative control rP38 (A type), aMTD-fused CRA recombinant protein, 10 μM FITC-labeled, 1 hour, 37° C., RAW 264.7 cells
[2] = cell-permeability relative to reference CPP MTD85 (C type), aMTD-fused CRA recombinant protein, 10 μM FITC-labeled, 1 hour, 37° C., RAW 264.7 cells
[3] = cell-permeability relative to reference CPP MTM12 (B type), aMTD-fused CRA recombinant protein, 10 μM FITC-labeled, 1 hour, 37° C., RAW 264.7 cells
[4] = cell-permeability of aMTD-fused CRA recombinant protein relative to negative control (A: rP38)
[5] = cell-permeability of aMTD-fused CRA recombinant protein relative to reference CPP (B: MTM12)
[6] = cell-permeability of aMTD-fused CRA recombinant protein relative to reference CPP (C: MTD85)

Row | Substance | Relative Ratio (Fold) A [1] [Fold] | Relative Ratio (Fold) C [2] [Fold] | Relative Ratio (Fold) B [3] [Fold] | Relative Ratio (Fold) A [4] [Fold] | Relative Ratio (Fold) B [5] [Fold] | Relative Ratio (Fold) C [6] [Fold]
1 | 765 (AVALAVVPAVLP; Amino acid Sequence of aMTD765) [compound 765] | 3.8 | 1.3 | 2.2 |  |  | 
2 | 766 (IVVIAVAPAVAP; Amino acid Sequence of aMTD766) [compound 766] |  |  |  | 12.9 | 8.6 | 4.4
3 | 767 (IVVAAVVPALAP; Amino acid Sequence of aMTD767) [compound 767] |  |  |  | 8.5 | 5.0 | 2.9
4 | 783 (IVALVPAVAIAP; Amino acid Sequence of aMTD783) [compound 783] | 5.7 | 1.9 | 3.8 |  |  | 
5 | 784 (VAALPAVALVVP; Amino acid Sequence of aMTD784) [compound 784] | 7.1 | 2.4 | 4.7 |  |  | 
6 | 786 (LVAIAPLAVLAP; Amino acid Sequence of aMTD786) [compound 786] |  |  |  | 21.2 | 14.2 | 7.2
7 | 788 (AIAVAIAPVALP; Amino acid Sequence of aMTD788) [compound 788] |  |  |  | 9.8 | 6.6 | 3.3
8 | 803 (AIALAVPVLALP; Amino acid Sequence of aMTD803) [compound 803] |  |  |  | 74.7 | 50.0 | 25.3
9 | 805 (LVLIAAAPIALP; Amino acid Sequence of aMTD805) [compound 805] |  |  |  | 22.3 | 14.9 | 7.6
10 | 806 (LVALAVPAAVLP; Amino acid Sequence of aMTD806) [compound 806] |  |  |  | 36.7 | 24.6 | 12.4
11 | 807 (AVALAVPALVLP; Amino acid Sequence of aMTD807) [compound 807] | 5.0 | 1.7 | 3.3 |  |  | 
12 | 809 (LIVLAAPALAAP; Amino acid Sequence of aMTD809) [compound 809] | 7.0 | 2.4 | 4.7 |  |  | 
13 | 810 (VIVLAAPALAAP; Amino acid Sequence of aMTD810) [compound 810] |  |  |  | 120.0 | 80.3 | 40.6
14 | 811 (AVVLAVPALAVP; Amino acid Sequence of aMTD811) [compound 811] |  |  |  | 46.5 | 31.1 | 15.7
15 | 824 (LIIVAAAPAVAP; Amino acid Sequence of aMTD824) [compound 824] |  |  |  | 32.8 | 21.9 | 11.1
16 | 825 (IVAVIVAPAVAP; Amino acid Sequence of aMTD825) [compound 825] |  |  |  | 69.7 | 46.6 | 23.5
17 | 826 (LVALAAPIIAVP; Amino acid Sequence of aMTD826) [compound 826] |  |  |  | 49.2 | 32.9 | 18.6
18 | 827 (IAAVLAAPALVP; Amino acid Sequence of aMTD827) [compound 827] |  |  |  | 43.0 | 28.8 | 14.6
19 | 828 (IALLAAPIIAVP; Amino acid Sequence of aMTD828) [compound 828] |  |  |  | 36.8 | 24.6 | 12.4
20 | 829 (AALALVAPVIVP; Amino acid Sequence of aMTD829) [compound 829] |  |  |  | 44.8 | 30.0 | 15.2
21 | 830 (IALVAAPVALVP; Amino acid Sequence of aMTD830) [compound 830] | 5.3 | 1.8 | 3.5 |  |  | 
22 | 831 (IIVAVAPAAIVP; Amino acid Sequence of aMTD831) [compound 831] |  |  |  | 46.3 | 31.0 | 15.7

Row | Substance | Relative Ratio (Fold) A [1] [Fold] | Relative Ratio (Fold) C [2] [Fold] | Relative Ratio (Fold) B [3] [Fold] | Relative Ratio (Fold) A [4] [Fold] | Relative Ratio (Fold) B [5] [Fold] | Relative Ratio (Fold) C [6] [Fold]
23 | 832 (AVAAIVPVIVAP; Amino acid Sequence of aMTD832) [compound 832] | 4.1 | 1.4 | 2.7 |  |  | 
24 | 843 (AVLVLVAPAAAP; Amino acid Sequence of aMTD843) [compound 843] |  |  |  | 26.4 | 17.7 | 8.9
25 | 844 (VVALLAPLIAAP; Amino acid Sequence of aMTD844) [compound 844] |  |  |  | 11.2 | 7.5 | 3.8
26 | 845 (AAVVIAPLLAVP; Amino acid Sequence of aMTD845) [compound 845] |  |  |  | 35.8 | 24.0 | 12.1
27 | 846 (IAVAVAAPLLVP; Amino acid Sequence of aMTD846) [compound 846] |  |  |  | 11.7 | 6.8 | 4.0
28 | 847 (LVAIVVLPAVAP; Amino acid Sequence of aMTD847) [compound 847] |  |  |  | 50.2 | 33.4 | 16.9
29 | 848 (AVAIVVLPAVAP; Amino acid Sequence of aMTD848) [compound 848] |  |  |  | 10.0 | 6.7 | 3.4
30 | 849 (AVILLAPLIAAP; Amino acid Sequence of aMTD849) [compound 849] |  |  |  | 8.3 | 4.8 | 2.9
31 | 850 (LVIALAAPVALP; Amino acid Sequence of aMTD850) [compound 850] |  |  |  | 8.8 | 5.9 | 3.0
32 | 851 (VLAVVLPAVALP; Amino acid Sequence of aMTD851) [compound 851] |  |  |  | 96.6 | 64.7 | 32.7
33 | 852 (VLAVAAPAVLLP; Amino acid Sequence of aMTD852) [compound 852] |  |  |  | 84.6 | 56.6 | 28.6
34 | 863 (AAVVLLPIIAAP; Amino acid Sequence of aMTD863) [compound 863] |  |  |  | 13.8 | 9.3 | 4.7
35 | 865 (AVLVIAVPAIAP; Amino acid Sequence of aMTD865) [compound 865] |  |  |  | 11.3 | 7.5 | 3.8
36 | 867 (ALLVVIAPLAAP; Amino acid Sequence of aMTD867) [compound 867] |  |  |  | 13.2 | 8.8 | 4.4
37 | 868 (VLVAAILPAAIP; Amino acid Sequence of aMTD868) [compound 868] |  |  |  | 14.9 | 10.0 | 5.0
38 | 870 (VLVAAVLPIAAP; Amino acid Sequence of aMTD870) [compound 870] |  |  |  | 16.6 | 11.1 | 5.6
39 | 872 (VLAAAVLPLVVP; Amino acid Sequence of aMTD872) [compound 872] | 7.3 | 2.5 | 4.9 |  |  | 
40 | 875 (AIAIVVPAVAVP; Amino acid Sequence of aMTD875) [compound 875] |  |  |  | 13.8 | 9.2 | 4.7
41 | 878 (IVALVAPAAVVP; Amino acid Sequence of aMTD878) [compound 878] |  |  |  | 10.3 | 6.9 | 3.5
42 | 881 (AALIVVPAVAVP; Amino acid Sequence of aMTD881) [compound 881] |  |  |  | 12.7 | 8.5 | 4.3
43 | 882 (AIALVVPAVAVP; Amino acid Sequence of aMTD882) [compound 882] |  |  |  | 35.0 | 23.4 | 11.8
